# Data: PubChem BioAssay (NCI)
#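 Each compound was tested at five concentrations against cells in 96-well plates for 48 hours. TGI: concentration producing complete growth inhibition.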
# Legend:
# Experiment in all cases: growth of human tumour cells (NCI), 48 h
# A498 renal = system: A498 renal
# A549 NSCLC = system: A549 NSCLC
# CCRF-CEM leukemia = system: CCRF-CEM leukemia
# COLO 205 colon = system: COLO 205 colon
# HCC-2998 colon = system: HCC-2998 colon
# KM12 colon = system: KM12 colon
# MDA-N = system: MDA-N
# MOLT-4 leukemia = system: MOLT-4 leukemia
# NCI-H23 lung = system: NCI-H23 lung
# OVCAR-3 ovarian = system: OVCAR-3 ovarian
# PC-3 prostate = system: PC-3 prostate
# RXF 393 renal = system: RXF 393 renal
# SK-OV-3 ovarian = system: SK-OV-3 ovarian
# SN12C renal = system: SN12C renal
# SNB-75 CNS = system: SNB-75 CNS
# U251 CNS = system: U251 CNS
# UACC-62 melanoma = system: UACC-62 melanoma
SMILES,TGI (A498 renal) [µM],TGI (A549 NSCLC) [µM],TGI (CCRF-CEM leukemia) [µM],TGI (COLO 205 colon) [µM],TGI (HCC-2998 colon) [µM],TGI (KM12 colon) [µM],TGI (MDA-N) [µM],TGI (MOLT-4 leukemia) [µM],TGI (NCI-H23 lung) [µM],TGI (OVCAR-3 ovarian) [µM],TGI (PC-3 prostate) [µM],TGI (RXF 393 renal) [µM],TGI (SK-OV-3 ovarian) [µM],TGI (SN12C renal) [µM],TGI (SNB-75 CNS) [µM],TGI (U251 CNS) [µM],TGI (UACC-62 melanoma) [µM]
COC(=O)c1cc(O)c(O)c(O)c1-c1c(O)c(O)c(O)c(SC[C@H](NC(=O)OCc2ccccc2)C(=O)OCc2ccccc2)c1C(=O)OC,> 100,36.3,> 100,48.4,> 100,> 100,47.5,43.4,50.3,> 100,62.7,> 100,> 100,41.8,68.1,33.5,64.8
CCc1c(CNC2=NCCN2)c(CC)c(CNC2=NCCN2)c(CC)c1CNC1=NCCN1,> 100,> 100,> 100,> 100,> 100,> 100,> 100,> 100,> 100,> 100,> 100,> 100,> 100,> 100,> 100,> 100,> 100
O=C1CCC2c3ccccc3NCN12 (stereo unspecified),> 100,> 100,> 100,> 100,> 100,> 100,> 100,> 100,> 100,> 100,> 100,> 100,> 100,> 100,> 100,> 100,> 100
Cc1nc2cc3ccccc3cc2[nH]c1=O,> 100,> 100,> 100,> 100,> 100,> 100,> 100,> 100,> 100,> 100,> 100,> 100,> 100,> 100,87,> 100,> 100
c1ccc(-c2c(-c3cccs3)[nH]c(-c3cccs3)c2-c2ccccn2)nc1,78.2,72.8,52.5,30.6,44.3,62.6,> 100,38.3,> 100,58.3,30.8,53.5,51.3,67.9,42.9,48.7,35.6
O=[N+]([O-])c1ccc2sc(/C=N/c3ccccn3)cc2c1,> 100,> 100,> 100,> 100,> 100,> 100,> 100,53.5,> 100,> 100,> 100,> 100,> 100,> 100,> 100,> 100,> 100
c1ccc2c(c1)c1c3c(c4c(n32)=NCCN4)CCC1,65.8,> 100,> 100,> 100,> 100,> 100,59.3,60.9,> 100,> 100,> 100,60.8,> 100,49.4,71.5,> 100,> 100
C/C(=N\Nc1nc2ccccc2[nH]1)c1cnccn1,7.75,> 40.5,6.75,> 40.2,59.8,22.4,> 100,> 100,> 30.7,> 100,> 88.4,4.81,> 100,12.4,> 53.9,> 59.5,> 22.3
